Results from the supplement of paper PMC8967900.

Tests used:
Assay in all cases: selective drug sensitivity score (sDSS, relative to normal bone marrow) (sDSS (score)); higher = more potent and effective on the cell line relative to normal bone marrow cells
Conditions in all cases: 72 h
[1] = test system: 697
[2] = test system: ALL-SIL
[3] = test system: CCRF-HSB2
[4] = test system: COG-LL-355h
[5] = test system: COG-LL-402h
[6] = test system: HAL-01
[7] = test system: JURKAT
[8] = test system: KARPAS-45
[9] = test system: KASUMI-9
[10] = test system: KOPN-8
[11] = test system: MN-60
[12] = test system: MOLT-14
[13] = test system: MOLT-16
[14] = test system: MOLT-4
[15] = test system: NALL-1
[16] = test system: NALM-16
[17] = test system: P12-ICHIKAWA
[18] = test system: P30-OHKUBO
[19] = test system: PF-382
[20] = test system: TMD5
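Also: ALL cell lines in 384-well plates, five doses spanning 10,000-fold, each plate scaled between vehicle and 100 µmol/L benzalkonium chloride controls, sDSS an adapted area-under-curve metric.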

Structure (SMILES)	selective drug sensitivity score [1]	selective drug sensitivity score [2]	selective drug sensitivity score [3]	selective drug sensitivity score [4]	selective drug sensitivity score [5]	selective drug sensitivity score [6]	selective drug sensitivity score [7]	selective drug sensitivity score [8]	selective drug sensitivity score [9]	selective drug sensitivity score [10]	selective drug sensitivity score [11]	selective drug sensitivity score [12]	selective drug sensitivity score [13]	selective drug sensitivity score [14]	selective drug sensitivity score [15]	selective drug sensitivity score [16]	selective drug sensitivity score [17]	selective drug sensitivity score [18]	selective drug sensitivity score [19]	selective drug sensitivity score [20]
COC(=O)C[C@](O)(CCCC(C)(C)O)C(=O)O[C@@H]1C(OC)=C[C@]23CCCN2CCc2cc4c(cc2[C@H]13)OCO4 [Omacetaxine] (top concentration 10000 nM)	10.5	-1.88	4.92	4.62	7.92	1.32	-0.48	3.72	1.12	5.02	-3.88	5.62	6.32	3.32	-6.78	-8.18	0.82	3.12	0.62	-2.08
C1=N/C2=N/c3ccc(OCCN4CCCC4)c(c3)COC/C=C/COCc3cccc(c3)C(=C1)N2 [Pacritinib] (top concentration 10000 nM)	-2.6	-3.6	-3.5	2.9	2.9	-0.6	-8	-2.9	-0.9	-4.7	-9.6	-4	-5.6	-7.3	-8.4	-8.2	-7.3	1.2	-7.5	-9.2
Cc1[nH]c2ccccc2c1CCNCc1ccc(/C=C/C(=O)NO)cc1 [Panobinostat] (top concentration 1000 nM)	7.64	6.04	5.24	4.84	14.6	-3.26	1.04	10.7	11.7	18.2	-1.46	6.74	9.04	2.94	-0.46	2.94	4.14	6.64	4.34	2.74
Cc1ccc(Nc2nccc(N(C)c3ccc4c(C)n(C)nc4c3)n2)cc1S(N)(=O)=O [Pazopanib] (top concentration 10000 nM)	4.94	2.64	4.34	-1.26	-1.26	-0.16	2.84	1.74	3.64	5.64	-0.86	-1.26	1.94	-1.06	-1.26	-1.26	1.04	5.14	1.74	4.54
Nc1nc2[nH]cc(CCc3ccc(C(=O)N[C@@H](CCC(=O)O)C(=O)O)cc3)c2c(=O)[nH]1 [Pemetrexed] (top concentration 10000 nM)	28.3	15.5	28.2	4.28	7.98	20.8	15.6	9.98	18.6	30.2	11.6	20.2	28.4	21.5	12.2	7.38	26.1	26.4	12.1	-0.72
Cc1ccc(C(=O)Nc2ccc(CN3CCN(C)CC3)c(C(F)(F)F)c2)cc1C#Cc1cnc2cccnn12 [Ponatinib] (top concentration 1000 nM)	6.62	41.7	34.4	5.52	10.2	8.42	1.42	5.02	5.42	27.1	-0.58	7.42	6.62	4.32	-3.08	-0.08	1.22	9.02	6.62	19
C[C@]12C=CC(=O)C=C1CC[C@@H]1[C@@H]2[C@@H](O)C[C@@]2(C)[C@H]1CC[C@]2(O)C(=O)CO [Prednisolone] (top concentration 10000 nM)	17.8	8.9	9.3	20.6	16.9	-2.6	-2.1	12.3	2	22.6	-3	-0.5	3.5	1.1	18	-3	14.6	15	-1.6	4.8
CC(C)(C)c1cc(NC(=O)Nc2ccc(-c3cn4c(n3)sc3cc(OCCN5CCOCC5)ccc34)cc2)no1 [Quizartinib] (top concentration 1000 nM)	0.98	3.48	-0.12	-1.02	-1.52	3.18	-1.52	3.68	-0.02	7.58	-1.52	-1.02	1.88	-0.82	-1.02	-1.32	0.18	0.68	0.98	-1.52
Nc1cc(F)ccc1NC(=O)/C=C/c1cnn(C/C=C/c2ccccc2)c1 [RGFP966] (top concentration 10000 nM)	13.2	12.4	15.9	4.84	6.84	12.7	11.2	14.6	13.5	11.5	3.04	17.1	18.2	8.94	12.2	6.24	17.8	14	11.1	8.54
CNC(=O)c1cc(Oc2ccc(NC(=O)Nc3ccc(Cl)c(C(F)(F)F)c3)c(F)c2)ccn1 [Regorafenib] (top concentration 10000 nM)	7.94	10	6.14	6.74	1.24	2.04	4.04	3.44	2.04	10.9	1.34	4.04	3.34	3.24	3.24	1.54	3.24	4.04	4.34	2.74
CN(C)Cc1ccc(S(=O)(=O)n2ccc(/C=C/C(=O)NO)c2)cc1 [Resminostat] (top concentration 10000 nM)	7.74	6.64	2.24	6.04	10.2	1.84	1.34	8.34	10.2	10.1	2.34	9.74	4.54	1.24	-4.46	0.24	7.34	7.94	2.64	0.34
COc1cc(OC)c(/C=C/S(=O)(=O)Cc2ccc(OC)c(NCC(=O)O)c2)c(OC)c1 [Rigosertib] (top concentration 10000 nM)	17	13.1	14.6	4.16	14.2	14.5	14.4	15.2	18.3	18.4	8.96	17.9	18.8	15.9	16.5	12.8	10.4	16.9	10.9	8.16
COc1ccc(CCc2nc3cc(-c4c(C)noc4C)ccc3n2C[C@H](C)N2CCOCC2)cc1Cl [SGC-CBP30] (top concentration 25000 nM)	2.48	4.68	2.38	9.88	7.78	3.98	2.18	4.98	5.58	6.18	2.78	4.58	6.58	1.88	-0.62	0.48	1.68	1.88	3.08	-2.62
CCS(=O)(=O)c1cccc(-c2cc(C(=O)NC3CCN(C)CC3)c(C)c3[nH]c4ncc(C)cc4c23)c1 [TAK-901] (top concentration 1000 nM)	12.8	15.3	13.6	6.16	8.96	-2.74	1.86	8.86	10.8	10.8	-2.64	7.26	12.6	10.6	11.8	0.16	12.3	12.8	7.16	7.16
Nc1nc(NC2CC2)cc(-c2cccc(Cl)c2Cl)n1 [TH588] (top concentration 25000 nM)	8.72	14.7	8.42	2.42	3.72	-0.58	15.2	8.12	7.92	7.22	-0.58	10.8	16.3	9.12	-0.28	5.32	3.72	4.02	6.72	-0.28
CC(=O)Nc1ccc(C(=O)Nc2ccccc2N)cc1 [Tacedinaline] (top concentration 1000 nM)	1.88	6.08	2.98	-0.02	0.38	9.18	0.68	2.08	4.38	15.5	-0.02	-0.02	-0.02	0.08	-0.02	-0.02	0.68	2.58	-0.02	10.6
Cn1ncnc1[C@H]1c2n[nH]c(=O)c3cc(F)cc(c23)N[C@@H]1c1ccc(F)cc1 [Talazoparib] (top concentration 1000 nM)	15.8	3.48	7.68	8.28	11.1	6.58	-0.22	-2.12	8.98	27.5	-4.92	10.5	19.1	9.68	8.78	-2.82	-0.52	9.68	-3.62	-1.52
COc1cccc2c1c(O)c(C(=O)N(C)c1ccc(C(F)(F)F)cc1)c(=O)n2C [Tasquinimod] (top concentration 10000 nM)	-0.42	3.48	2.38	-0.42	-0.42	-0.42	-0.42	-0.22	-0.42	-0.42	-0.22	-0.42	-0.42	-0.42	-0.42	-0.42	-0.42	-0.42	-0.32	-0.42
